According to US20260224520A1, “ABC TRANSPORTER EXPRESSION PROMOTING AGENT, CHOLESTEROL EXCRETION PROMOTING AGENT, INFLAMMATORY CYTOKINE PRODUCTION INHIBITING AGENT, ANTI-INFLAMMATORY AGENT, AND ARTERIOSCLEROSIS PREVENTING AGENT” (MEIJI CO., LTD., priority 2022, published 2026):
Entries after “also recorded” stand apart in the source; their conditions may differ.

Tests used:
[1] = system: Human macrophage-like THP-1 cells; assay: Cholesterol excretion promoting activity of fatty acids, fluorometry, 24 h pre-culture with the substance; format: cell-based; details: for cholesterol excretion promoting activity (in words): conclusion from Tables 5A and 8
Experimental: Human macrophage-like THP-1 cells were seeded in a 96-well plate so as to be 2.0×10^5 cells/well, and allowed to differentiate for 72 hours. The medium was then replaced with RPMI 1640 medium containing 0.02% by mass of bovine serum albumin (BSA), 10 to 40 μg/mL (final concentration in the well) of 10-hydroxypalmitic acid (Angene) was added, and the cells were cultured for 24 hours. The medium was then replaced with Dulbecco's Modified Eagle Medium (DMEM) containing 0.02% by mass of BSA and 6 mM of sodium taurocholate, and the medium was recovered after 4 hours. The level of cholesterol excreted from the cells (the cholesterol level in the recovered medium) was measured in the same manner as in Example 1 to evaluate the cholesterol excretion promoting activity of 10-hydroxypalmitic acid (n=3).
In the same manner as in Example 5A, the cholesterol excretion promoting activities of 10-hydroxypalmitic acid and other hydroxypalmitic acids (2-hydroxypalmitic acid (Tokyo Chemical Industry Co., Ltd.), 3-hydroxypalmitic acid (Sigma-Aldrich), 16-hydroxypalmitic acid (Tokyo Chemical Industry Co., Ltd.), and 10-hydroxypalmitic acid), which may be contained in Camembert cheese, as well as palmitic acid to which no hydroxyl group was added (Sigma) were evaluated (n=6 to 11).

ABCA1 [2] = assay: ABCA1 protein expression level by Western blotting in THP-1 cells; format: cell-based, Human; details: 20 μg/mL, 24 h; corrected with actin; DMSO = 1; n=3
Experimental: (§1) The ABCA1 and ABCG1 protein expression levels were evaluated. Specifically, cells cultured in the same manner as in Example 6 were recovered, SDS-PAGE and blotting were carried out using the 10% minigel shown in Table 7A and, after blocking, the protein expression levels were measured by Western blotting using a primary antibody (anti-mouse monoclonal ABCA1 (KM3110) or anti-rabbit polyclonal ABCG1 (H65) (Novus)) and anti-actin (Sigma) as a loading control (n=3). The protein expression levels were quantified with CS Analyzer 4 […]. The ABCA1 and ABCG1 protein expression levels were each corrected with the actin protein expression level.

ABCA1 [3] = assay: ABCA1 mRNA expression level by real-time PCR in THP-1 cells; format: cell-based, Human; details: 20 μg/ml, 24 h; corrected with 18S ribosomal RNA; EtOH = 1; n=3
Experimental: (§2) Since the cholesterol excretion promoting activity of 10-hydroxypalmitic acid was confirmed, the effect of 10-hydroxypalmitic acid on ABC transporters was evaluated. Specifically, human macrophage-like THP-1 cells were seeded in a 24-well plate so as to be 1.0×10^6 cells/well, and allowed to differentiate for 72 hours. The medium was then replaced with RPMI 1640 medium containing 0.02% by mass of bovine serum albumin (BSA), 20 μg/mL (final concentration in the well) of 10-hydroxypalmitic acid was added, the cells were cultured for 24 hours, then mRNA was extracted using RNeasy Minikit (Qiagen), reverse transcription was carried out using ReverTra Ace (Registered trademark) qPCR RT Master Mix with gDNA Remover (Toyobo), and the ABCA1 and ABCG1 mRNA expression levels were measured by real-time PCR using Thermal Cycler Dice TP800 (Takara). 18S ribosomal RNA was used as a control gene. The ABCA1 and ABCG1 mRNA expression levels were each corrected with the mRNA expression level of the control gene, and the ABC transporter expression promoting activity of 10-hydroxypalmitic acid was evaluated (n=3).

[4] = system: Human macrophage-like THP-1 cells; assay: Cholesterol excretion promoting activity of 10-hydroxypalmitic acid by colorimetry; format: cell-based
Experimental: The cholesterol excretion promoting activity of 10-hydroxypalmitic acid was also examined by colorimetry. Specifically, human macrophage-like THP-1 cells were seeded in a 6-well plate so as to be 4.0×10^6 cells/well, and allowed to differentiate for 72 hours. The medium was then replaced with RPMI 1640 medium containing 0.02% by mass of bovine serum albumin (BSA), 20 μg/mL (final concentration in the well) of 10-hydroxypalmitic acid (Angene) was added, and the cells were cultured for 24 hours and then recovered. Lipids were then extracted using methanol and chloroform, and the level of cholesterol excreted from the cells (the cholesterol level in the recovered medium) was measured using a free cholesterol assay kit (Fujifilm Wako Pure Chemical Corporation) to evaluate the cholesterol excretion promoting activity of 10-hydroxypalmitic acid (n =3).

ABCG1 [5] = assay: ABCG1 protein expression level by Western blotting in THP-1 cells; format: cell-based, Human; details: 20 μg/mL, 24 h; corrected with actin; DMSO = 1; n=3
Experimental: as §1

IL-6 = IL-6 mRNA expression level by real-time PCR in THP-1 cells with or without inflammation induction; format: cell-based, Human; details: 24 h, DMSO-control = 1
Experimental: (§3) Human macrophage-like THP-1 cells were seeded in a 24-well plate so as to be 1.0×10^6 cells/well, and allowed to differentiate for 72 hours. The medium was then replaced with RPMI 1640 medium containing: 0.02% by mass of bovine serum albumin (BSA); either dimethyl sulfoxide (DMSO) or 20 μg/mL of 10-hydroxypalmitic acid; and either 50 μg/mL of oxidized LDL (oxLDL) (Invitrogen), 50 μg/mL of acetylated LDL (acLDL) (Invitrogen), 5 μM of T0901317+5 μM of 9-cis-retinoic acid (T0+RA), or 1 μg/mL of lipopolysaccharide (LPS) (Sigma), or replaced with RPMI 1640 medium (control) containing: 0.02% by mass of bovine serum albumin (BSA); and either DMSO or 20 μg/mL 10-hydroxypalmitic acid, but not containing any of oxLDL, acLDL, T0+RA, and LPS, and the macrophage-like cells were cultured for 24 hours to induce inflammation. The medium was then replaced with Dulbecco's Modified Eagle Medium (DMEM) containing 0.02% by mass of BSA and 6 mM of sodium taurocholate, and the cells were cultured for 4 hours. The cells were then recovered, and the mRNA expression levels of IL-1 and IL-6, which are inflammatory markers (inflammatory cytokines), were measured by real-time PCR in the same manner as in Example 6 (n=4 to 6).

IL-1 = IL-1 mRNA expression level by real-time PCR in THP-1 cells with or without inflammation induction; format: cell-based, Human; details: 24 h, DMSO-control = 1
Experimental: as §3

[6] = system: Human macrophage-like THP-1 cells; assay: Cholesterol excretion promoting activity in an inflammation-induced state, fluorometry (Amplex Red); format: cell-based; details: for Cholesterol excretion level (Average # standard deviation): DMSO-control = 1, n=4
Experimental: Human macrophage-like THP-1 cells were seeded in a 24-well plate so as to be 1.0×10^6 cells/well, and allowed to differentiate for 72 hours. The medium was then replaced with RPMI 1640 medium containing: 0.02% by mass of bovine serum albumin (BSA); either dimethyl sulfoxide (DMSO) or 20 μg/mL of 10-hydroxypalmitic acid; and either 50 μg/mL of oxidized LDL (oxLDL) (Invitrogen), 50 μg/mL of acetylated LDL (acLDL) (Invitrogen), 5 μM of T0901317+5 μM of 9-cis-retinoic acid (T0+RA), or 1 μg/mL of LPS (Sigma), or replaced with RPMI 1640 medium (control) containing: 0.02% by mass of BSA; and either DMSO or 20 μg/mL 10-hydroxypalmitic acid, but not containing any of oxLDL, acLDL, T0+RA, and LPS, and the macrophage-like cells were cultured for 24 hours to induce inflammation. The medium was then replaced with Dulbecco's Modified Eagle Medium (DMEM) containing 0.02% by mass of BSA and 6 mM of sodium taurocholate, and the cells were cultured for 4 hours. The medium was then recovered, and the level of cholesterol excreted from the cells (the cholesterol level in the recovered medium) was measured by fluorometry using Amplex Red to evaluate the cholesterol excretion promoting activity of 10-hydroxypalmitic acid in an inflammation-induced state (n=4).

ABCG1 [7] = assay: ABCG1 mRNA expression level by real-time PCR in THP-1 cells; format: cell-based, Human; details: 20 μg/mL, 24 h; corrected with 18S ribosomal RNA; EtOH = 1; n=3
Experimental: as §2

[8] = same manner as Example 5A, concentration not given, EtOH = 1, n=6 to 11
[9] = 20 μg/mL with T0 + RA (5 μM each)
[10] = 20 μg/mL, Control (no inducer), n=4 to 6

CCCCCCCCCCCCCCC(O)C(=O)O (stereo not drawn) [2-Hydroxypalmitic acid, 2-hydroxypalmitic acid, reference compound]
Cholesterol excretion level (Average ± standard deviation) [1, 8]: 0.970 ± 0.175 relative value

CCCCCCCCCCCCCC(O)CC(=O)O (stereo not drawn) [3-Hydroxypalmitic acid, 3-hydroxypalmitic acid, reference compound]
Cholesterol excretion level (Average ± standard deviation) [1, 8]: 1.094 ± 0.271 relative value

CCCCCCC(O)CCCCCCCCC(=O)O (stereo not drawn) [10-hydroxypalmitic acid]
ABCA1 protein expression level (Average ± standard deviation) (ABCA1 [2]): 2.607 ± 0.559 relative value | ABCA1 mRNA expression level (Average ± standard deviation) (ABCA1 [3]): 2.870 ± 0.267 relative value | Cholesterol excretion level (Average ± standard deviation) ([4]; 20 μg/mL, 24 h, DMSO = 1, n=3): 1.569 ± 0.317 relative value | cholesterol excretion promoting activity (in words) ([4]; conclusion from Table 5B): confirmed | ABCG1 protein expression level (Average ± standard deviation) (ABCG1 [5]): 2.541 ± 0.815 relative value | Cholesterol excretion level (Average ± standard deviation) ([1]; 10 μg/mL, 24 h, DMSO = 1, n=3): 1.553 ± 0.102 relative value | Cholesterol excretion level (Average ± standard deviation) ([1]; 20 μg/mL, 24 h, DMSO = 1, n=3): 1.685 ± 0.138 relative value | Cholesterol excretion level (Average ± standard deviation) ([1]; 30 μg/mL, 24 h, DMSO = 1, n=3): 2.313 ± 0.479 relative value | Cholesterol excretion level (Average ± standard deviation) ([1]; 40 μg/mL, 24 h, DMSO = 1, n=3): 1.872 ± 0.374 relative value | cholesterol excretion promoting activity (in words) [1]: concentration-dependent cholesterol excretion promoting activity; also recorded: had a cholesterol excretion promoting activity | Cholesterol excretion level (Average ± standard deviation) [1, 8]: 1.331 ± 0.500 relative value | IL-6 mRNA expression level (Average ± standard deviation) (IL-6; 20 μg/mL with 1 μg/mL LPS): 0.530 ± 0.107 relative value | IL-6 mRNA expression level (Average ± standard deviation) (IL-6; 20 μg/mL with 50 μg/mL acLDL): 0.363 ± 0.149 relative value | IL-6 mRNA expression level (Average ± standard deviation) (IL-6; 20 μg/mL with 50 μg/mL oxLDL): 0.167 ± 0.029 relative value | IL-6 mRNA expression level (Average ± standard deviation) (IL-6; [9]): 0.095 ± 0.050 relative value | IL-6 mRNA expression level (Average ± standard deviation) (IL-6; [10]): 0.104 ± 0.032 relative value | IL-1 mRNA expression level (Average ± standard deviation) (IL-1; 20 μg/mL with 1 μg/mL LPS): 0.450 ± 0.390 relative value | IL-1 mRNA expression level (Average ± standard deviation) (IL-1; 20 μg/mL with 50 μg/mL acLDL): 0.389 ± 0.067 relative value | IL-1 mRNA expression level (Average ± standard deviation) (IL-1; 20 μg/mL with 50 μg/mL oxLDL): 0.419 ± 0.184 relative value | IL-1 mRNA expression level (Average ± standard deviation) (IL-1; [9]): 0.185 ± 0.059 relative value | IL-1 mRNA expression level (Average ± standard deviation) (IL-1; [10]): 0.200 ± 0.046 relative value | Cholesterol excretion level (Average # standard deviation) ([6]; 20 μg/mL with 1 μg/mL LPS): 9.320 ± 3.477 relative value | Cholesterol excretion level (Average # standard deviation) ([6]; 20 μg/mL with 50 μg/mL acLDL): 1.821 ± 0.426 relative value | Cholesterol excretion level (Average # standard deviation) ([6]; 20 μg/mL with 50 μg/mL oxLDL): 2.389 ± 0.628 relative value | Cholesterol excretion level (Average # standard deviation) [6, 9]: 33.159 ± 10.920 relative value | Cholesterol excretion level (Average # standard deviation) ([6]; 20 μg/mL, Control (no inducer)): 3.588 ± 1.302 relative value | cholesterol excretion promoting activity (in words) ([6]; inflammation-induced state or ABC transporters induced by T0+RA, conclusion from Table 10): had a cholesterol excretion promoting activity | ABCG1 mRNA expression level (Average ± standard deviation) (ABCG1 [7]): 2.953 ± 0.195 relative value

O=C(O)CCCCCCCCCCCCCCCO [16-hydroxypalmitic acid]
cholesterol excretion promoting activity (in words) [1]: had a cholesterol excretion promoting activity | Cholesterol excretion level (Average ± standard deviation) [1, 8]: 1.406 ± 0.982 relative value

CCCCCCCCCCCCCCCC(=O)O [Palmitic acid, palmitic acid, reference compound]
Cholesterol excretion level (Average ± standard deviation) [1, 8]: 0.823 ± 0.268 relative value
